Results from paper PMC7438494 (Communications Biology, 2020).
Where two headings read alike, the source gives them in different places.

Target: human ATP synthase (Homo sapiens, UniProt P00846+P05496)
Test: biochemical
Format: biochemical

COc1nc2ccc(Br)cc2cc1[C@@H](c1ccccc1)[C@@](O)(CCN(C)C)c1cccc2ccccc12 [BDQ, Bedaquiline]
activity at 1 µM (Human Mito, 4th exp (18_12_26), BDQ 1 uM, read-out: Cyanide sensitive % activity): 8.67% | activity at 2 µM (Human Mito, 4th exp (18_12_26), BDQ 2 uM, read-out: Cyanide sensitive % activity): 2.82% | activity at 5 µM (Human Mito, 4th exp (18_12_26), BDQ 5 uM, read-out: Cyanide sensitive % activity): -2.55% | activity at 10 µM (Human Mito, 4th exp (18_12_26), BDQ 10 uM, read-out: Cyanide sensitive % activity): 0% | Cyanide sensitive (Human Mito, 5th exp (19), BDQ in DMSO, Bedaquiline 5e-5 μM, 60 min): 8.081 nmol/min/mg | Cyanide sensitive (Human Mito, 5th exp (19), BDQ in DMSO, Bedaquiline 0.0005 μM, 60 min): 7.799 nmol/min/mg | activity at 0.0005 µM (Human Mito, 5th exp (19), BDQ in DMSO, Bedaquiline 0.0005 μM, 60 min, read-out: % activity): 75.5% | Cyanide sensitive (Human Mito, 5th exp (19), BDQ in DMSO, Bedaquiline 0.005 μM, 60 min): 7.932 nmol/min/mg | activity at 0.005 µM (Human Mito, 5th exp (19), BDQ in DMSO, Bedaquiline 0.005 μM, 60 min, read-out: % activity): 71.9% | Cyanide sensitive (Human Mito, 5th exp (19), BDQ in DMSO, Bedaquiline 0.1 μM, 60 min): 7.371 nmol/min/mg | activity at 0.1 µM (Human Mito, 5th exp (19), BDQ in DMSO, Bedaquiline 0.1 μM, 60 min, read-out: % activity): 76.1% | Cyanide sensitive (Human Mito, 5th exp (19), BDQ in DMSO, Bedaquiline 0.2 μM, 60 min): 5.1485 nmol/min/mg | activity at 0.2 µM (Human Mito, 5th exp (19), BDQ in DMSO, Bedaquiline 0.2 μM, 60 min, read-out: % activity): 61.2% | Cyanide sensitive (Human Mito, 5th exp (19), BDQ in DMSO, Bedaquiline 0.5 μM, 60 min): 7.123 nmol/min/mg | activity at 0.5 µM (Human Mito, 5th exp (19), BDQ in DMSO, Bedaquiline 0.5 μM, 60 min, read-out: % activity): 73.7% | Cyanide sensitive (Human Mito, 5th exp (19), BDQ in DMSO, Bedaquiline 0.65 μM, 60 min): 5.712 nmol/min/mg | activity at 0.65 µM (Human Mito, 5th exp (19), BDQ in DMSO, Bedaquiline 0.65 μM, 60 min, read-out: % activity): 69.7% | Cyanide sensitive (Human Mito, 5th exp (19), BDQ in DMSO, Bedaquiline 1 μM, 60 min): -0.04135 nmol/min/mg | activity at 1 µM (Human Mito, 5th exp (19), BDQ in DMSO, Bedaquiline 1 μM, 60 min, read-out: % activity): 11.1% | Cyanide sensitive (Human Mito, 5th exp (19), BDQ in DMSO, Bedaquiline 2 μM, 60 min): -0.9975 nmol/min/mg | activity at 2 µM (Human Mito, 5th exp (19), BDQ in DMSO, Bedaquiline 2 μM, 60 min, read-out: % activity): 5% | Cyanide sensitive (Human Mito, 5th exp (19), BDQ in DMSO, Bedaquiline 5 μM, 60 min): -2.758 nmol/min/mg | activity at 5 µM (Human Mito, 5th exp (19), BDQ in DMSO, Bedaquiline 5 μM, 60 min, read-out: % activity): 0.69% | Cyanide sensitive (Human Mito, 5th exp (19), BDQ in DMSO, Bedaquiline 10 μM, 60 min): -0.848 nmol/min/mg | activity at 10 µM (Human Mito, 5th exp (19), BDQ in DMSO, Bedaquiline 10 μM, 60 min, read-out: % activity): 3.96% | activity at 0.0005 µM (Human Mito, 5th exp (19_01_02), BDQ 0.0005 uM, read-out: Cyanide sensitive % activity): 75.5% | activity at 0.005 µM (Human Mito, 5th exp (19_01_02), BDQ 0.005 uM, read-out: Cyanide sensitive % activity): 71.9% | activity at 0.1 µM (Human Mito, 5th exp (19_01_02), BDQ 0.1 uM, read-out: Cyanide sensitive % activity): 76.1% | activity at 0.2 µM (Human Mito, 5th exp (19_01_02), BDQ 0.2 uM, read-out: Cyanide sensitive % activity): 61.2% | activity at 0.5 µM (Human Mito, 5th exp (19_01_02), BDQ 0.5 uM, read-out: Cyanide sensitive % activity): 73.7% | activity at 0.65 µM (Human Mito, 5th exp (19_01_02), BDQ 0.65 uM, read-out: Cyanide sensitive % activity): 69.7% | activity at 1 µM (Human Mito, 5th exp (19_01_02), BDQ 1 uM, read-out: Cyanide sensitive % activity): 11.1% | activity at 2 µM (Human Mito, 5th exp (19_01_02), BDQ 2 uM, read-out: Cyanide sensitive % activity): 5% | activity at 5 µM (Human Mito, 5th exp (19_01_02), BDQ 5 uM, read-out: Cyanide sensitive % activity): 0.69% | activity at 10 µM (Human Mito, 5th exp (19_01_02), BDQ 10 uM, read-out: Cyanide sensitive % activity): 3.96% | Cyanide sensitive % activity, Average (Human Mito, average of experiments, BDQ 5e-6 uM): 75.05% | Cyanide sensitive % activity, Average (Human Mito, average of experiments, BDQ 5e-5 uM): 71.33% | activity at 0.0005 µM (Human Mito, average of experiments, BDQ 0.0005 uM, read-out: Cyanide sensitive % activity, Average): 78.5% | activity at 0.005 µM (Human Mito, average of experiments, BDQ 0.005 uM, read-out: Cyanide sensitive % activity, Average): 68% | activity at 0.1 µM (Human Mito, average of experiments, BDQ 0.1 uM, read-out: Cyanide sensitive % activity, Average): 70.6% | activity at 0.2 µM (Human Mito, average of experiments, BDQ 0.2 uM, read-out: Cyanide sensitive % activity, Average): 57.6% | activity at 0.5 µM (Human Mito, average of experiments, BDQ 0.5 uM, read-out: Cyanide sensitive % activity, Average): 52.1% | activity at 0.65 µM (Human Mito, average of experiments, BDQ 0.65 uM, read-out: Cyanide sensitive % activity, Average): 44.5% | activity at 0.85 µM (Human Mito, average of experiments, BDQ 0.85 uM, read-out: Cyanide sensitive % activity, Average): 27.4% | activity at 1 µM (Human Mito, average of experiments, BDQ 1 uM, read-out: Cyanide sensitive % activity, Average): 6.29% | activity at 2 µM (Human Mito, average of experiments, BDQ 2 uM, read-out: Cyanide sensitive % activity, Average): 0.46% | activity at 5 µM (Human Mito, average of experiments, BDQ 5 uM, read-out: Cyanide sensitive % activity, Average): -2% | activity at 10 µM (Human Mito, average of experiments, BDQ 10 uM, read-out: Cyanide sensitive % activity, Average): 0.62% | activity at 0.0005 µM (Human Mito, plotted duplicates, first column, BDQ 0.0005 uM, read-out: % activity): 81.5% | activity at 0.005 µM (Human Mito, plotted duplicates, first column, BDQ 0.005 uM, read-out: % activity): 88.5% | activity at 0.1 µM (Human Mito, plotted duplicates, first column, BDQ 0.1 uM, read-out: % activity): 71.2% | activity at 0.2 µM (Human Mito, plotted duplicates, first column, BDQ 0.2 uM, read-out: % activity): 59.5% | activity at 0.5 µM (Human Mito, plotted duplicates, first column, BDQ 0.5 uM, read-out: % activity): 51.2% | activity at 0.65 µM (Human Mito, plotted duplicates, first column, BDQ 0.65 uM, read-out: % activity): 37.6% | activity at 0.85 µM (Human Mito, plotted duplicates, first column, BDQ 0.85 uM, read-out: % activity): 33.1% | activity at 1 µM (Human Mito, plotted duplicates, first column, BDQ 1 uM, read-out: % activity): 8.67% | activity at 2 µM (Human Mito, plotted duplicates, first column, BDQ 2 uM, read-out: % activity): 2.82% | activity at 5 µM (Human Mito, plotted duplicates, first column, BDQ 5 uM, read-out: % activity): -2.55% | activity at 10 µM (Human Mito, plotted duplicates, first column, BDQ 10 uM, read-out: % activity): -2.1% | activity at 0.0005 µM (Human Mito, plotted duplicates, second column, BDQ 0.0005 uM, read-out: % activity): 75.5% | activity at 0.005 µM (Human Mito, plotted duplicates, second column, BDQ 0.005 uM, read-out: % activity): 71.9% | activity at 0.1 µM (Human Mito, plotted duplicates, second column, BDQ 0.1 uM, read-out: % activity): 76.1% | activity at 0.2 µM (Human Mito, plotted duplicates, second column, BDQ 0.2 uM, read-out: % activity): 61.2% | activity at 0.5 µM (Human Mito, plotted duplicates, second column, BDQ 0.5 uM, read-out: % activity): 58% | activity at 0.65 µM (Human Mito, plotted duplicates, second column, BDQ 0.65 uM, read-out: % activity): 40% | activity at 0.85 µM (Human Mito, plotted duplicates, second column, BDQ 0.85 uM, read-out: % activity): 32.5% | activity at 1 µM (Human Mito, plotted duplicates, second column, BDQ 1 uM, read-out: % activity): 11.1% | activity at 2 µM (Human Mito, plotted duplicates, second column, BDQ 2 uM, read-out: % activity): 1.13% | activity at 5 µM (Human Mito, plotted duplicates, second column, BDQ 5 uM, read-out: % activity): 0.69% | activity at 10 µM (Human Mito, plotted duplicates, second column, BDQ 10 uM, read-out: % activity): 3.96% | extent of inhibition of ATP synthesis of the human enzyme (in words): nearly completely | activity at 0.0005 µM (read-out: % activity): 89.6% | activity at 0.1 µM (read-out: % activity): 81.7% | activity at 0.2 µM (read-out: % activity): 77.1% | activity at 0.5 µM (read-out: % activity): 62.5% | activity at 0.85 µM (read-out: % activity): 54% | activity at 1 µM (read-out: % activity): 48.4% | activity at 2 µM (read-out: % activity): 45.8% | activity at 10 µM (read-out: % activity): 36.3% | inhibition at 0.2 µM (read-out: % inhibition): 22.9% | inhibition at 0.5 µM (read-out: % inhibition): 37.5% | inhibition at 1 µM (read-out: % inhibition): 57.4% | inhibition at 2 µM (read-out: % inhibition): 54.2% | inhibition at 10 µM (read-out: % inhibition): 63.7%
